Experimental data as given in patent US20240041840A1 (Areteia Therapeutics, Inc., priority 2020, published 2024).
Like-named read-outs stand apart in the source and are kept apart here.

Tested on: subjects with eosinophilic asthma
Experimental: Pulmonary function is measured by performing a spirometry, which measures forced expiratory volume in is (FEV1), the volume of air moved in the first second of exhalation, this is a well-accepted measure of asthma. Forced vital capacity (FVC) is the total volume of air exhaled during the entire forced expiratory volume (FEV) test. The FEV1/FVC ratio is a calculated measure that may provide a more specific measure of bronchoconstriction, independent of processes such as air trapping. Pulmonary function testing can be tested pre-bronchodilator (after waiting a sufficient time so that all bronchodilator medications have cleared) or post-bronchodilator, typically 15-30 minutes after inhaling a short-acting bronchodilator, such as albuterol. Bronchodilator reversibility (BDR) is calculated and assessed by analyzing FEV1 pre- and post-bronchodilator, and calculating the change both as absolute (ml) and percentage change.
Evaluation of Efficacy: Blood eosinophil count, changes in pulmonary function (FEV1), Asthma Control Questionnaire (ACQ-6), Asthma Control Questionnaire (ACQ-7), Asthma Quality of Life Questionnaire (AQLQ), exhaled nitric oxide, pharyngeal and nasal eosinophil peroxidase were collected periodically during the study.
To control the alpha level for testing 3 dose groups versus placebo for the primary endpoint and for testing FEV1, a closed hierarchical testing procedure was used in the following order: 1. First, the 300 mg/day dose group was tested versus placebo for change in blood absolute eosinophil count, and if this reached the <0.05 level then, 2. the 150 mg/day dose group was tested versus placebo at the 0.05 level for change in blood absolute eosinophil count, and if this reached the <0.05 level then, 3. the pooled 150 and 300 mg/day dose groups were tested versus placebo at the 0.05 level for change in FEV1 at Week 12, then 4. the 75 mg/day dose group was tested versus placebo at the 0.05 level for change in blood absolute eosinophil count, and if this reached the <0.05 level.

[1] = 75 mg/day, Table 6D, timepoint printed as Analysis Baseline*
[2] = 75 mg/day, Table 6D, timepoint printed as Week 4
[3] = 150 mg/day, Table 6D, timepoint printed as Analysis Baseline*
[4] = 150 mg/day, Table 6D, timepoint printed as Week 4
[5] = 300 mg/day, Table 6D, timepoint printed as Analysis Baseline*
[6] = 300 mg/day, Table 6D, timepoint printed as Week 4
[7] = Week 4, pooled dexpramipexole arms, <50% AEC reduction at Week 12
[8] = Week 4, pooled dexpramipexole arms, ≥50% AEC reduction at Week 12
[9] = Week 8, pooled dexpramipexole arms, ≥50% AEC reduction at Week 12
[10] = Week 12, pooled dexpramipexole arms, <50% AEC reduction at Week 12
[11] = Week 12, pooled dexpramipexole arms, ≥50% AEC reduction at Week 12
[12] = Week 16 or Week 18, pooled dexpramipexole arms, ≥50% AEC reduction at Week 12

CCCN[C@@H]1CCc2nc(N)sc2C1 [dexpramipexole, (6R)-2-amino-4,5,6,7-tetrahydro-6-(propylamino) benzothiazole]
Pre-Bronchodilator FEV1 % change, mean [1]: 12.0%
Pre-Bronchodilator FEV1 % change, median [1]: 10.7%
Pre-Bronchodilator FEV1 change, mean [1]: 0.237 L
Pre-Bronchodilator FEV1 change, median [1]: 0.170 L
Pre-Bronchodilator FEV1 observed, mean [1]: 228 L
Pre-Bronchodilator FEV1 observed, median [1]: 2.24 L
Pre-Bronchodilator FEV1 % change, mean [2]: 9.27%
Pre-Bronchodilator FEV1 % change, median [2]: 5.48%
Pre-Bronchodilator FEV1 change, mean [2]: 0.207 L
Pre-Bronchodilator FEV1 change, median [2]: 0.115 L
Pre-Bronchodilator FEV1 observed, mean [2]: 2.24 L
Pre-Bronchodilator FEV1 observed, median [2]: 2.08 L
FEV1 change from Baseline LSM (75 mg/day, Week 4): 0.150 L
FEV1 difference versus Placebo LSM (75 mg/day, Week 4): 0.165 L
Pre-Bronchodilator FEV1 % change, median (75 mg/day, Week 4): 4.85%
Pre-Bronchodilator FEV1, % change from Baseline, mean (75 mg/day, Week 4): 6.25%
Pre-Bronchodilator FEV1 change, mean (75 mg/day, Week 4): 0.130 L
Pre-Bronchodilator FEV1 change, median (75 mg/day, Week 4): 0.0750 L
Pre-Bronchodilator FEV1 observed, mean (75 mg/day, Week 4): 2.10 L
Pre-Bronchodilator FEV1 observed, median (75 mg/day, Week 4): 2.10 L
Pre-Bronchodilator Percent Predicted FEV1 % change, mean (75 mg/day, Week 4): 62.4%
Pre-Bronchodilator Percent Predicted FEV1 % change, median (75 mg/day, Week 4): 4.85%
Pre-Bronchodilator Percent Predicted FEV1 change, mean (75 mg/day, Week 4): 3.59%
Pre-Bronchodilator Percent Predicted FEV1 change, median (75 mg/day, Week 4): 2.69%
Pre-Bronchodilator Percent Predicted FEV1 observed, mean (75 mg/day, Week 4): 62.2%
Pre-Bronchodilator Percent Predicted FEV1 observed, median (75 mg/day, Week 4): 64.4%
FEV1 change from Baseline LSM (75 mg/day, Week 8): 0.204 L
FEV1 difference versus Placebo LSM (75 mg/day, Week 8): 0.210 L
Pre-Bronchodilator FEV1, % change from Baseline, mean (75 mg/day, Week 8): 12.0%
FEV1 change from Baseline LSM (75 mg/day, Week 12): 0.168 L
FEV1 difference versus Placebo LSM (75 mg/day, Week 12): 0.121 L
Pre-Bronchodilator FEV1, % change from Baseline, mean (75 mg/day, Week 12): 9.27%
FEV1 change from Baseline LSM (75 mg/day, Week 16 or Week 18): 0.295 L
FEV1 difference versus Placebo LSM (75 mg/day, Week 16 or Week 18): 0.327 L
Pre-Bronchodilator FEV1, % change from Baseline, mean (75 mg/day, Week 16 or Week 18): 17.6%
ΔFEV1 vs Placebo LSM (SEM), pooled data (75 mg/day, Weeks 4, 8, 12, & 16/18 pooled): 206 mL
Pre-Bronchodilator FEV1 % change, mean [3]: 7.57%
Pre-Bronchodilator FEV1 % change, median [3]: 3.88%
Pre-Bronchodilator FEV1 change, mean [3]: 0.130 L
Pre-Bronchodilator FEV1 change, median [3]: 0.0900 L
Pre-Bronchodilator FEV1 observed, mean [3]: 2.21 L
Pre-Bronchodilator FEV1 observed, median [3]: 2.22 L
Pre-Bronchodilator FEV1 % change, mean [4]: 3.14%
Pre-Bronchodilator FEV1 % change, median [4]: −1.72%
Pre-Bronchodilator FEV1 change, mean [4]: 0.0414 L
Pre-Bronchodilator FEV1 change, median [4]: -0.0400 L
Pre-Bronchodilator FEV1 observed, mean [4]: 2.12 L
Pre-Bronchodilator FEV1 observed, median [4]: 2.11 L
FEV1 change from Baseline LSM (150 mg/day, Week 4): 0.151 L
FEV1 difference versus Placebo LSM (150 mg/day, Week 4): 0.166 L
Pre-Bronchodilator FEV1 % change, median (150 mg/day, Week 4): 4.54%
Pre-Bronchodilator FEV1, % change from Baseline, mean (150 mg/day, Week 4): 7.31%
Pre-Bronchodilator FEV1 change, mean (150 mg/day, Week 4): 0.123 L
Pre-Bronchodilator FEV1 change, median (150 mg/day, Week 4): 0.0800 L
Pre-Bronchodilator FEV1 observed, mean (150 mg/day, Week 4): 2.15 L
Pre-Bronchodilator FEV1 observed, median (150 mg/day, Week 4): 2.05 L
Pre-Bronchodilator Percent Predicted FEV1 % change, mean (150 mg/day, Week 4): 7.31%
Pre-Bronchodilator Percent Predicted FEV1 % change, median (150 mg/day, Week 4): 4.54%
Pre-Bronchodilator Percent Predicted FEV1 change, mean (150 mg/day, Week 4): 3.95%
Pre-Bronchodilator Percent Predicted FEV1 change, median (150 mg/day, Week 4): 2.85%
Pre-Bronchodilator Percent Predicted FEV1 observed, mean (150 mg/day, Week 4): 67.4%
Pre-Bronchodilator Percent Predicted FEV1 observed, median (150 mg/day, Week 4): 69.2%
FEV1 change from Baseline LSM (150 mg/day, Week 8): 0.166 L
FEV1 difference versus Placebo LSM (150 mg/day, Week 8): 0.173 L
Pre-Bronchodilator FEV1, % change from Baseline, mean (150 mg/day, Week 8): 7.57%
FEV1 change from Baseline LSM (150 mg/day, Week 12): 0.0601 L
Pre-Bronchodilator FEV1, % change from Baseline, mean (150 mg/day, Week 12): 3.14%
FEV1 difference versus Placebo LSM (150 mg/day, Week 16 or Week 18): 0.161 L
Pre-Bronchodilator FEV1, % change from Baseline, mean (150 mg/day, Week 16 or Week 18): 7.71%
ΔFEV1 vs Placebo LSM (SEM), pooled data (150 mg/day, Weeks 4, 8, 12, & 16/18 pooled): 126 mL
Placebo-corrected FEV1 increase from baseline (300 mg/day arm, averaged Week 8 through Week 16/18): counts. In the 300 mg/day arm, placebo-corrected FEV1 increased more than 200 mL from baseline, averaged
Pre-Bronchodilator FEV1 % change, mean [5]: 15.5%
Pre-Bronchodilator FEV1 % change, median [5]: 10.5%
Pre-Bronchodilator FEV1 change, mean [5]: 0.277 L
Pre-Bronchodilator FEV1 change, median [5]: 0.250 L
Pre-Bronchodilator FEV1 observed, mean [5]: 2.32 L
Pre-Bronchodilator FEV1 observed, median [5]: 2.40 L
Pre-Bronchodilator FEV1 % change, mean [6]: 12.5%
Pre-Bronchodilator FEV1 % change, median [6]: 10.0%
Pre-Bronchodilator FEV1 change, mean [6]: 0.236 L
Pre-Bronchodilator FEV1 change, median [6]: 0.210 L
Pre-Bronchodilator FEV1 observed, mean [6]: 2.29 L
Pre-Bronchodilator FEV1 observed, median [6]: 2.45 L
FEV1 change from Baseline LSM (300 mg/day, Week 4): 0.0685 L
FEV1 difference versus Placebo LSM (300 mg/day, Week 4): 0.0838 L
Pre-Bronchodilator FEV1 % change, median (300 mg/day, Week 4): 3.95%
Pre-Bronchodilator FEV1, % change from Baseline, mean (300 mg/day, Week 4): 1.42%
Pre-Bronchodilator FEV1 change, mean (300 mg/day, Week 4): 0.0417 L
Pre-Bronchodilator FEV1 change, median (300 mg/day, Week 4): 0.0700 L
Pre-Bronchodilator FEV1 observed, mean (300 mg/day, Week 4): 2.14 L
Pre-Bronchodilator FEV1 observed, median (300 mg/day, Week 4): 2.16 L
Pre-Bronchodilator Percent Predicted FEV1 % change, mean (300 mg/day, Week 4): 1.42%
Pre-Bronchodilator Percent Predicted FEV1 % change, median (300 mg/day, Week 4): 3.94%
Pre-Bronchodilator Percent Predicted FEV1 change, mean (300 mg/day, Week 4): 0.607%
Pre-Bronchodilator Percent Predicted FEV1 change, median (300 mg/day, Week 4): 2.34%
Pre-Bronchodilator Percent Predicted FEV1 observed, mean (300 mg/day, Week 4): 62.5%
Pre-Bronchodilator Percent Predicted FEV1 observed, median (300 mg/day, Week 4): 62.3%
FEV1 change from Baseline LSM (300 mg/day, Week 8): 0.248 L
FEV1 difference versus Placebo LSM (300 mg/day, Week 8): 0.254 L
Pre-Bronchodilator FEV1, % change from Baseline, mean (300 mg/day, Week 8): 15.5%
FEV1 change from Baseline LSM (300 mg/day, Week 12): 0.209 L
FEV1 difference versus Placebo LSM (300 mg/day, Week 12): 0.162 L
Pre-Bronchodilator FEV1, % change from Baseline, mean (300 mg/day, Week 12): 12.5%
FEV1 change from Baseline LSM (300 mg/day, Week 16 or Week 18): 0.207 L
FEV1 difference versus Placebo LSM (300 mg/day, Week 16 or Week 18): 0.240 L
Pre-Bronchodilator FEV1, % change from Baseline, mean (300 mg/day, Week 16 or Week 18): 10.8%
ΔFEV1 vs Placebo LSM (SEM), pooled data (300 mg/day, Weeks 4, 8, 12, & 16/18 pooled): 185 mL
Improvement in FEV1 (150 and 75 mg/day arms): Week 8 through Week 16/18. Substantial improvements in FEV1 were also seen in the 150 and 75 mg/day arms.
ΔFEV1 vs Placebo LSM (SEM), pooled data (All Dex arms pooled, Week 4): 138 mL
ΔFEV1 vs Placebo LSM (SEM), pooled data (All Dex arms pooled, Week 8): 212 mL
ΔFEV1 vs Placebo LSM (SEM), pooled data (All Dex arms pooled, Week 12): 99 mL
ΔFEV1 vs Placebo LSM (SEM), pooled data (All Dex arms pooled, Week 16/18): 233 mL
ΔFEV1 vs Placebo LSM (SEM), pooled data (All Dex arms pooled, Weeks 4, 8, 12, & 16/18 pooled): 173 mL
Magnitude and statistical significance of FEV1 improvement from baseline compared with other drugs (Table 5, FIG. 3, FIG. 6): comparable or greater than that demonstrated in phase 2 clinical trials of benralizumab and mepolizumab
Pre-Bronchodilator FEV1 Change from Baseline LSM [7]: 0.0742 L
Pre-Bronchodilator FEV1 Difference versus Placebo LSM [7]: 0.0859 L
Pre-Bronchodilator FEV1 Change from Baseline LSM [8]: 0.163 L
Pre-Bronchodilator FEV1 Difference versus Placebo LSM [8]: 0.175 L
Pre-Bronchodilator FEV1 Difference versus Placebo LSM (Week 8, pooled dexpramipexole arms, <50% AEC reduction at Week 12): 0.132 L
Pre-Bronchodilator FEV1 Change from Baseline LSM [9]: 0.275 L
Pre-Bronchodilator FEV1 Difference versus Placebo LSM [9]: 0.276 L
Pre-Bronchodilator FEV1 Change from Baseline LSM [10]: 0.00797 L
Pre-Bronchodilator FEV1 Difference versus Placebo LSM [10]: -0.0448 L
Pre-Bronchodilator FEV1 Change from Baseline LSM [11]: 0.261 L
Pre-Bronchodilator FEV1 Difference versus Placebo LSM [11]: 0.208 L
Pre-Bronchodilator FEV1 Difference versus Placebo LSM (Week 16 or Week 18, pooled dexpramipexole arms, <50% AEC reduction at Week 12): 0.169 L
Pre-Bronchodilator FEV1 Change from Baseline LSM [12]: 0.258 L
Pre-Bronchodilator FEV1 Difference versus Placebo LSM [12]: 0.287 L
FEV1 in hematologic responders (all post-baseline time points (Table 12, FIG. 5)): significant increase
